From PubChem BioAssay (NCI) come the findings set out here.

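Compound exposure: 48 hours, 5 concentrations, 96-well plates. GI50: concentration for 50% inhibition of growth. The concentration for full growth arrest is given as TGI.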

Some test systems named below: ACHN renal; HOP-62 NSCLC; IGROV1 ovarian; MCF7 breast; NCI-H23 lung; OVCAR-8 ovarian; SK-MEL-2 melanoma; SNB-75 CNS; T-47D breast; UACC-62 melanoma.
What all share (assay): inhibition of tumour cell growth, NCI panel, 48 h

As to `CSc1nc2c(c(=O)[nH]1)N=C1c3ccccc3C(=O)C1C(c1ccc(F)cc1)N2` (stereo not given), the GI50 is 11.6 µM in the assay with ACHN renal; 11.9 µM in the assay on HOP-62 NSCLC; 11.3 µM with IGROV1 ovarian; 5.18 µM with MCF7 breast; 13.5 µM in the assay on NCI-H23 lung; 13.1 µM in the assay with OVCAR-8 ovarian. For the same molecule, the GI50 was 49.3 µM in the assay on SK-MEL-2 melanoma, 1.46 µM in the assay with SNB-75 CNS, 14.2 µM in the assay with T-47D breast and 3.04 µM in the assay on UACC-62 melanoma. The TGI in the assay with ACHN renal was 36.4 µM; in the assay on HOP-62 NSCLC, 33.7 µM; with IGROV1 ovarian, greater than 100 µM; with MCF7 breast, 62.4 µM; in the assay on NCI-H23 lung, 55.9 µM; in the assay with OVCAR-8 ovarian it was 35.4 µM. In addition, the TGI was greater than 100 µM in the assay on SK-MEL-2 melanoma, 14.9 µM in the assay with SNB-75 CNS, 94.6 µM in the assay on T-47D breast and 48.9 µM with UACC-62 melanoma.
With `O=C(O)C(=Cc1ccnc2ccccc12)C(=O)O`, the TGI with ACHN renal, in the assay on HOP-62 NSCLC, in the assay on IGROV1 ovarian, with MCF7 breast, with NCI-H23 lung and with OVCAR-8 ovarian was greater than 100 µM in each case. Further, the TGI in the assay with SK-MEL-2 melanoma, in the assay on SNB-75 CNS, in the assay on T-47D breast and in the assay with UACC-62 melanoma was greater than 100 µM each time.
Regarding `N#CC(=S)Nc1cccc(Cl)c1`, the TGI in the assay with ACHN renal is greater than 100 µM; in the assay on HOP-62 NSCLC it was greater than 100 µM; in the assay with IGROV1 ovarian it was 29.4 µM; in the assay on MCF7 breast, greater than 100 µM; with NCI-H23 lung, greater than 100 µM; with OVCAR-8 ovarian, greater than 100 µM. Also, the TGI in the assay on SK-MEL-2 melanoma is greater than 100 µM; in the assay with SNB-75 CNS it was 75.9 µM; in the assay on T-47D breast it was greater than 100 µM; in the assay with UACC-62 melanoma, greater than 100 µM.
As to `C=C1C(=O)O[C@H]2[C@H]1CC/C(COC(=O)NCc1cc3ccccc3[nH]1)=C\CC[C@@]1(C)O[C@@H]21`, the GI50 in the assay with ACHN renal was 1.38 µM; in the assay on HOP-62 NSCLC, 10.3 µM; in the assay with IGROV1 ovarian, 1.46 µM; in the assay with MCF7 breast, 1.45 µM; in the assay with NCI-H23 lung, 2.16 µM; in the assay on OVCAR-8 ovarian, 2.02 µM. Besides, the GI50 was 2.46 µM in the assay with SK-MEL-2 melanoma, 3.91 µM in the assay on SNB-75 CNS, 1.8 µM in the assay with T-47D breast and 1.62 µM in the assay on UACC-62 melanoma. For the same molecule, the TGI in the assay on ACHN renal turned out to be 2.75 µM; in the assay on HOP-62 NSCLC, 23.3 µM; with IGROV1 ovarian, 3.46 µM; in the assay on MCF7 breast it was 3.26 µM; in the assay on NCI-H23 lung, 5.18 µM; in the assay on OVCAR-8 ovarian, 5.41 µM. For the same molecule, the TGI with SK-MEL-2 melanoma is 7.25 µM; in the assay with SNB-75 CNS it was 19.2 µM; in the assay with T-47D breast, 4.33 µM; with UACC-62 melanoma it was 3.2 µM.
As to `Cc1c(N=Nc2ccc([N+](=O)[O-])cc2)nc2scc(-c3ccccc3)n12`, the TGI in the assay on ACHN renal, in the assay with HOP-62 NSCLC, in the assay with IGROV1 ovarian, in the assay on MCF7 breast, in the assay with NCI-H23 lung and in the assay on OVCAR-8 ovarian was greater than 100 µM in each case. The TGI in the assay on SK-MEL-2 melanoma, in the assay with SNB-75 CNS, in the assay on T-47D breast and in the assay with UACC-62 melanoma was greater than 100 µM each time.
For `Nc1ccccc1C#C/C=C\C#Cc1ccccc1C(F)(F)F`, the GI50 in the assay with ACHN renal was 0.323 µM; in the assay with HOP-62 NSCLC, 0.588 µM; with IGROV1 ovarian, 1.34 µM; in the assay on MCF7 breast, 1.56 µM; with NCI-H23 lung, 0.397 µM; in the assay on OVCAR-8 ovarian, 1.32 µM. For the same molecule, the GI50 with SK-MEL-2 melanoma is 21.8 µM; in the assay with SNB-75 CNS, 0.0869 µM; in the assay with T-47D breast, 19.4 µM; in the assay with UACC-62 melanoma, 0.255 µM. The TGI was 15.8 µM in the assay on ACHN renal; 18.7 µM in the assay on HOP-62 NSCLC; greater than 55.8 µM in the assay with IGROV1 ovarian; greater than 47.5 µM in the assay with MCF7 breast; 5.17 µM in the assay with NCI-H23 lung; 20.6 µM with OVCAR-8 ovarian. Besides, the TGI in the assay with SK-MEL-2 melanoma was greater than 100 µM; in the assay on SNB-75 CNS, 18.8 µM; in the assay with T-47D breast, 61.2 µM; with UACC-62 melanoma, 3.04 µM.
As to `O=C1CCC(Cc2ccc(Cl)cc2Cl)C(=O)N1` (stereo not given), the TGI in the assay on ACHN renal, in the assay on HOP-62 NSCLC, in the assay with IGROV1 ovarian, in the assay with MCF7 breast, with NCI-H23 lung and with OVCAR-8 ovarian was greater than 100 µM each time. Moreover, the TGI in the assay with SK-MEL-2 melanoma, in the assay on SNB-75 CNS, in the assay on T-47D breast and in the assay with UACC-62 melanoma was greater than 100 µM each time.
As to `CCCC[C@H]1C(=O)O[C@H](C)[C@H](NC(=O)c2cccc(NC=O)c2O)C(=O)O[C@@H](C)[C@@H]1OC(=O)CC(C)C`, the TGI is 36.1 µM in the assay on ACHN renal; 33.2 µM in the assay with HOP-62 NSCLC; 41.9 µM in the assay with IGROV1 ovarian; 25.8 µM in the assay on MCF7 breast; 31.2 µM in the assay on NCI-H23 lung; 40.5 µM with OVCAR-8 ovarian. For the same molecule, the TGI in the assay on SK-MEL-2 melanoma came to 22.2 µM; with SNB-75 CNS it was 59.9 µM; with T-47D breast it was 44.8 µM; in the assay on UACC-62 melanoma, 22.1 µM.
Turning to `O=C(/C=C/c1ccc(OCC(=O)N2CCN(c3ccccc3)CC2)cc1)c1ccc(Cl)cc1`, the TGI in the assay with ACHN renal was 69.7 µM; in the assay with HOP-62 NSCLC, 55.3 µM; with IGROV1 ovarian it was greater than 100 µM; with MCF7 breast it was greater than 100 µM; in the assay with NCI-H23 lung it was greater than 100 µM; in the assay on OVCAR-8 ovarian it was greater than 100 µM. In addition, the TGI in the assay with SK-MEL-2 melanoma is 98.3 µM; with SNB-75 CNS, 39.2 µM; in the assay on T-47D breast it was greater than 100 µM; in the assay on UACC-62 melanoma it was greater than 95.7 µM.
On to `Cc1c(C#N)cccc1-c1cc(-c2cn(Cc3cccc(C(C)(C)O)n3)nn2)nc(N)n1`, for which the GI50 in the assay on ACHN renal is 28.3 µM; in the assay on HOP-62 NSCLC, 22.2 µM; in the assay with IGROV1 ovarian it was 14.4 µM; with MCF7 breast, 22.4 µM; in the assay with NCI-H23 lung it was 26 µM; in the assay with OVCAR-8 ovarian it was 24.2 µM. The GI50 in the assay with SK-MEL-2 melanoma is 21.3 µM; with SNB-75 CNS it was 2.96 µM; with T-47D breast it was 6.9 µM; in the assay with UACC-62 melanoma, 12 µM. Moreover, the TGI in the assay on ACHN renal, with HOP-62 NSCLC, in the assay with IGROV1 ovarian, with MCF7 breast, in the assay with NCI-H23 lung and in the assay on OVCAR-8 ovarian was greater than 100 µM throughout. The TGI with SK-MEL-2 melanoma was 79.3 µM; with SNB-75 CNS it was 39 µM; in the assay on T-47D breast, 62.5 µM; in the assay with UACC-62 melanoma, 57.9 µM.
